Structures can show the parent of a compound that is named as a salt.
How the values were obtained:
[1] = parameters: method as in earlier work; settings: reported CHI values of the calibration set; cited from earlier work
[2] = test system: differentiated SH-SY5Y cells; parameters: method as in PMID 37631071, PMID 25900438; settings: same in vitro model; cited from earlier work
[3] = test system: differentiated SH-SY5Y cells; settings: same experimental conditions; cited from earlier work
[4] = test system: differentiated SH-SY5Y cells; parameters: method as in PMID 37631071, PMID 25900438; settings: same in vitro model; cited from earlier work; remark: listed apart in the source
[5] = test system: differentiated SH-SY5Y cells; experiment: Neutral red (NR) uptake cytotoxicity assay; format: cell-based, human
Method: The cells were seeded at a density of 25,000 cells/cm^2. To achieve a more mature neuron-like phenotype, SH-SY5Y cells were initially cultured in a complete medium supplemented with RA (10 µM). Subsequently, 3 days post-seeding, TPA (80 nM) was added to each well, and the cells were maintained for another 3 days until use, thus achieving a dopaminergic phenotype. In all the experiments, the cells were used between passages 22 and 28.
The differentiated SH-SY5Y cells (25,000 cells/cm^2) and primary rat cortical cultures (150,000 cells/cm^2) were seeded onto 96-well plates as previously described.
Accordingly, 6 days after seeding (differentiated SH-SY5Y cells) or at 8 DIV (primary cultures), the cells were exposed, for 24 h (37 °C, 5% CO2), to different concentrations of the drugs (0–1000 µM). Thus, the tested concentrations ranged from 0 to 1000 µM for 2C-T-2 and 2C-T-4; 0 to 500 µM for 2C-T-7; 0 to 250 µM for 25T2-NBOMe, and 0 to 100 µM for 25T4-NBOMe and 25T7-NBOMe.
The NR uptake assay is based on the detection of viable cells through the incorporation of the NR dye by the cell’s lysosomes. In brief, after 24 h of exposure to the tested drugs, the differentiated SH-SY5Y cells and primary rat cortical cultures were incubated with NR (50 µg/mL in complete medium) for 90 or 210 min, respectively, at 37 °C, in a 5% CO2-95% air atmosphere. To extract the absorbed dye, an acidified ethanol solution was used, and the absorbance was then measured at 540 nm in a multi-well plate reader (PowerWaveX, BioTek Instruments, Winooski, VT, USA). The cytotoxicity was estimated by the percentage of NR uptake relative to the control cells, and a minimum of 4 independent experiments were conducted in triplicate.

MAO-A and MAO-B = settings: rat model; cited from earlier work
[6] = test system: differentiated SH-SY5Y cells; experiment: Intracellular calcium levels, Fluo-4 AM probe; format: cell-based, human; settings: positive control, 25 mM
Method: Calcium is a vital second messenger for almost every cellular process, including cellular signaling, muscle function, neurotransmitter release, membrane function, and apoptosis. Therefore, its levels inside cells are strictly controlled to maintain cellular homeostasis. The intracellular calcium levels were measured using the cell-permeable Fluo-4 AM probe. Inside the cells, Fluo-4 AM is cleaved to its active and fluorescent form—Fluo-4—which has a high affinity for calcium ions (Ca^2⁺). Thus, its fluorescence emission is directly proportional to the concentration of calcium ions in the intracellular environment.
Therefore, the SH-SY5Y cells were seeded onto 96-well plates (25,000 cells/cm^2) following the previously described seeding and differentiation protocol. […] The average value for negative control (EGTA-treated cells) was subtracted from every other condition and then the minimum average value was subtracted from the maximum average value for every other condition. The results are presented as a percentage relative to the control cells (0 µM). A minimum of 5 independent experiments were conducted in triplicate.

[7] = test system: differentiated SH-SY5Y cells; experiment: Total glutathione (tGSH) levels, DTNB-GSH recycling assay; format: cell-based, human; settings: 100 μM, 24 h; control 100.0%
Source text: Glutathione has a critical role in cellular physiology, playing multiple essential roles in maintaining cellular health and function, including antioxidant defense, detoxification, and cellular signaling. The 5,5′-dithiobis(2-nitrobenzoic acid) (DTNB)-GSH recycling assay was used to measure total GSH (tGSH), which includes the reduced (GSH) and oxidized (GSSG) forms of glutathione. The assay relies on the reaction of GSH with DTNB, producing the yellow-colored 5-thio-2-nitrobenzoic acid (TNB). Thus, the TNB generated is directly proportional to the amount of GSH present in the sample [31].
Thus, the SH-SY5Y cells were seeded onto 6-well plates (25,000 cells/cm^2) following the previously described seeding and differentiation protocol. On the day of the experiment, the cells were exposed to different concentrations of the tested drugs (EC20 and EC50) for 24 h (37 °C, 5% CO2). At the end of the incubation period, the cells were centrifuged (5 min, 250 g, 4 °C). For the analysis of extracellular GSH levels, the supernatants were collected, and proteins precipitated with 30% HClO4 for at least 30 min (4 °C). For the analysis of intracellular GSH levels, after collecting the supernatants, the cells were treated with 5% HClO4 for at least 30 min (4 °C). Subsequently, the acidic samples were collected from the plates and centrifuged (5 min, 16,000× g, 4 °C), and the supernatants were stored until further analysis (−80 °C). To assess protein content, the pellets were resuspended in 1M NaOH, maintained at 4 °C overnight, and stored until further analysis (−20 °C). A Bio-Rad DC™ protein assay kit (Bio-Rad Laboratories, Hercules, CA, USA) was used to analyze protein content, in accordance with the manufacturer’s guidelines.
Before the tGSH quantification, the acidic samples were diluted (1:2) with 5% HClO4, and the diluted samples/standards were neutralized with an ice-cold KHCO3 solution (1:1) and centrifuged (5 min, 16,000× g, 4 °C).
Then, 100 µL of supernatant from each sample/standard was transferred into a 96-well plate and 65 µL of an extemporaneous reagent solution (0.68 mM NADPH and 3.96 mM DTNB prepared in a 7.5 pH phosphate buffer) was added to each well, and the plates were incubated for 15 min at 30 °C. After 15 min, 40 μL of a 10 U/mL glutathione reductase solution was added to each well and the formation of 5-thio-2-nitrobenzoic acid (TNB) was monitored every 10 s for 3 min (kinetic mode) at 415 nm in a multi-well plate reader (PowerWaveX, BioTek Instruments, Winooski, VT, USA).
The GSH levels were standardized to protein content. The results are presented as a percentage relative to the control cells (0 µM). A minimum of 6 independent experiments were conducted, in duplicate.
Glutamate/cysteine ligase (GCL), also recognized as gamma-glutamylcysteine synthetase (γ-GCS), is a key enzyme in the first step of glutathione biosynthesis, as it catalyzes the reaction between glutamate and cysteine to produce γ-glutamylcysteine. […] The SH-SY5Y cells were seeded onto 6-well plates (25,000 cells/cm^2) following the previously described seeding and differentiation protocol. On the day of the experiment, the cells were incubated with BSO (100 µM) for 24 h (37 °C, 5% CO2) and the quantification of GSH intracellular levels was achieved according to the previously described method in Section 2.11.

serotonergic B65 cells = test system: serotonergic B65 cells; parameters: method as in doi:10.1007/s11419-020-00527-w; settings: cited from earlier work
[8] = test system: differentiated SH-SY5Y cells; experiment: Mitochondrial membrane potential, JC-1 dye; format: cell-based, human; settings: positive control, 100 µM, 2 h
Source text: Mitochondrial membrane potential (ΔΨm) is a valuable parameter that reflects the energy status and functional integrity of cells, and the JC-1 dye is widely used as an indicator of ΔΨm. In healthy cells with high ΔΨm, JC-1 forms J-aggregates that emit red fluorescence. In apoptotic or unhealthy cells with low ΔΨm, JC-1 remains in its monomeric form and emits green fluorescence. The ratio of red to green fluorescence intensity is proportional to the degree of polarization of the mitochondrial membrane (a higher ratio indicates a more polarized membrane).
Thus, the SH-SY5Y cells were seeded onto 24-well plates (25,000 cells/cm^2) following the previously described seeding and differentiation protocol. On the day of the experiment, the cells were exposed to different concentrations of the tested drugs (EC20 and EC50) for 24 h (37 °C, 5% CO2). CCCP (100 µM, 2 h) was used as a positive control for mitochondrial membrane depolarization. At the end of the incubation period, the medium was removed, and the cells were incubated, for 30 min, with 10 µM JC-1 under light protection (37 °C, 5% CO2). Subsequently, the plates were centrifuged (5 min, 300× g, room temperature), the supernatants were rejected, and the cells were washed 2 times with warm HBSS with calcium and magnesium. Fluorescence was recorded at the wavelengths of 485 nm excitation and 535 nm emission for JC-1 monomers and 535 nm excitation and 595 nm emission wavelengths for J-aggregates in a multi-well plate reader (PowerWaveX, BioTek Instruments, Winooski, VT, USA). The results are presented as the percentage of JC-1 red/green fluorescence ratio relative to the control cells, and a minimum of 5 independent experiments were conducted in triplicate.

TK6 cells = test system: TK6 cells; parameters: method as in PMID 33348640; settings: 35 µM, 1 h; cited from earlier work

## Cn1c(=O)c2[nH]cnc2n(C)c1=O [Theophyline, theophylline]
[1]
  CHI0 pH 2.3: 17.9

## CCC(=O)c1ccccc1 [Propiophenone]
[1]
  CHI0 pH 2.3: 77.4

## COc1ccccc1CNCCc1cc(OC)c(OC)c(OC)c1 [mescaline-NBOMe]
[2]
  tGSH content: significant decrease in the tGSH content
[3]
  drug-induced cytotoxicity upon MAO inhibition: significant increase in the drug-induced cytotoxicity was observed upon MAO inhibition
[4]
  ROS production: no ROS production

## C#CCN(C)CCCOc1ccc(Cl)cc1Cl [clorgyline, reference compound]
[5]; 1 μM, 24 h of exposure
  cytotoxicity, NR uptake: Neither clorgyline nor rasagiline (1 μM) showed significant cytotoxicity

## C#CCN[C@@H]1CCc2ccccc21 [rasagiline, rasagiline mesylate, reference compound]
[5]; 1 μM, 24 h of exposure
  cytotoxicity, NR uptake: Neither clorgyline nor rasagiline (1 μM) showed significant cytotoxicity

## CC(=O)Nc1ccc(O)cc1 [Paracetamol]
[1]
  CHI0 pH 2.3: 18.77

## COc1cc(CCN)c(OC)cc1C [2C-D]
MAO-A and MAO-B
  deamination by MAO-A and MAO-B: both isoenzymes can catalyze the deamination

## [Ca+2].[Cl-].[Cl-] [CaCl2, reference compound]
[6]
  Ca2+ intracellular levels, % of control cells: 141.0%

## COc1cc([N+](=O)[O-])c(OC)cc1CCN [2C-N]
[2]
  tGSH content: significant decrease in the tGSH content
[3]
  drug-induced cytotoxicity upon MAO inhibition: significant increase in the drug-induced cytotoxicity was observed upon MAO inhibition
[4]
  ROS production: no ROS production

## c1ccc2[nH]ccc2c1 [Indole]
[1]
  CHI0 pH 2.3: 72.1

## COc1cc([N+](=O)[O-])c(OC)cc1CCNCc1ccccc1OC [25N-NBOMe]
[3]
  drug-induced cytotoxicity upon MAO inhibition: significant increase in the drug-induced cytotoxicity was observed upon MAO inhibition

## c1cc2c(cc1CN1CCNCC1)OCO2 [MDBP]
[2]
  tGSH content: significant decrease in the tGSH content
[4]
  ROS production: no ROS production

## COc1ccc(N2CCNCC2)cc1 [MeOPP]
[2]
  tGSH content: significant decrease in the tGSH content
[4]
  ROS production: no ROS production

## NC(=O)N1c2ccccc2C=Cc2ccccc21 [Carbamazepine]
[1]
  CHI0 pH 2.3: 60.42

## CCCCS(=N)(=O)CCC(N)C(=O)O [BSO, L-buthionine sulfoximine, reference compound]
[7]
  GSH intracellular levels, % of control cells: 9.2%
[5]; 100 μM, 24 h (Figure S2: + 50 μM for an additional 24 h)
  cytotoxicity, NR uptake: No significant cytotoxic effects

## COc1cc(CCN)cc(OC)c1OC [mescaline]
[2]
  tGSH content: significant decrease in the tGSH content
[3]
  drug-induced cytotoxicity upon MAO inhibition: significant increase in the drug-induced cytotoxicity was observed upon MAO inhibition
[4]
  ROS production: no ROS production

## COc1cc2c(c(OC)c1OC)-c1ccc(OC)c(=O)cc1[C@@H](NC(C)=O)CC2 [Colchicine]
[1]
  CHI0 pH 2.3: 43.9

## COc1cc(CCN)c(OC)cc1Cl [2C-C, reference compound]
Serotonergic B65 cells
  mitochondrial production of ROS: no significant alterations

## N#CC(C#N)=NNc1cccc(Cl)c1 [CCCP, carbonyl cyanide 3-chlorophenylhydrazone, reference compound]
[8]
  mitochondrial membrane polarization (JC-1 red/green ratio), % of the control cells: 56.3%

## CCCC(=O)c1ccccc1 [Butyrophenone]
[1]
  CHI0 pH 2.3: 87.3

## FC(F)(F)c1cccc(N2CCNCC2)c1 [TFMPP]
[2]
  tGSH content: significant decrease in the tGSH content
[4]
  ROS production: no ROS production

## c1ccc2[nH]cnc2c1 [Benzimidazole]
[1]
  CHI0 pH 2.3: 6.3

## c1ccc(CN2CCNCC2)cc1 [BZP]
[2]
  tGSH content: significant decrease in the tGSH content
[4]
  ROS production: no ROS production

## CCc1cc(OC)c(CCN)cc1OC [2C-E]
MAO-A and MAO-B
  deamination by MAO-A and MAO-B: both isoenzymes can catalyze the deamination

## COc1cc(CCNCc2ccccc2OC)c(OC)cc1Cl [25C-NBOMe]
[2]
  tGSH content: significant decrease in the tGSH content
[4]
  ROS production: no ROS production

## COc1ccc(OC)c(CCN)c1 [2C-H]
TK6 cells
  increase in ROS levels: two-fold

## Cn1c(=O)c2c(ncn2C)n(C)c1=O [Caffeine, caffeine]
[1]
  CHI0 pH 2.3: 23.41

Source: publication PMC11204507, “Mechanistic Insights into the Neurotoxicity of 2,5-Dimethoxyphenethylamines (2C) and Corresponding N-(2-methoxybenzyl)phenethylamine (NBOMe) Drugs” (Journal of Xenobiotics, 2024)
